Test results reported in the Kinase Knowledgebase extract (Sharma et al. 2016).

Biological target: MAPK14 (human) (UniProt Q16539)
Assay: Apoptotic Activity (Eosinophils)
Settings: concentration not given here

Chain of MAPK14 (human) (Q16539 whole entry, looked up): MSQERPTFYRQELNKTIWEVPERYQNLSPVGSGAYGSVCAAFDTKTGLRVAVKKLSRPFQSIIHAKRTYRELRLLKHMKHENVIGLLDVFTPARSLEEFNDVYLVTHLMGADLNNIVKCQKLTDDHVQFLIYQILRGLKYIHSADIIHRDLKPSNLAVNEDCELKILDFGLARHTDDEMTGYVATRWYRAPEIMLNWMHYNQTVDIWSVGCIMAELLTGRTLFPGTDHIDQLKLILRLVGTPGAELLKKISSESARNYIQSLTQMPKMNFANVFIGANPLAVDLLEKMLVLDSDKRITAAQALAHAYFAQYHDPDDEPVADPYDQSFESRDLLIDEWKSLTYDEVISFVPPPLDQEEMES

SMILES	apoptosis [%]
COc1ccc2c(c1)c(CC(=O)O)c(C)n2C(=O)c1ccc(Cl)cc1	27.7
CC(C(=O)O)c1ccc(-c2ccccc2)c(F)c1 (stereo not drawn)	32.5
CS(=O)(=O)Nc1cc2c(cc1-c1ccc(F)c(S)c1F)C(=O)CC2	28.9
